In one series the test system is MTAP^-/- HCT-116 cells. The series can be described thus: Cell proliferation (MTS), MTAP-/- HCT-116. The following applies: for Selectivity: HCT116 WT IC50 relative to HCT116 MTAP-/- IC50; for IC50: Homo sapiens, 240 h, MTAP-/- HCT-116, 10 days with compound, MTS reading, read-out: IC50 HCT116 MTAP-/-. It counts as cell-based, human. The procedure, abridged: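 MTAP-/- (CRISPR/Cas9 biallelic knockout) or wild-type HCT-116 cells seeded at 100 cells/well, treated next day with 8-point 3-fold dilutions (top 20 µM) for 10 days at 37 °C, 5% CO2. Viability read by MTS; IC50 from four-parameter logistic fit of inhibition rate vs log concentration.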

A further series is described as follows: PK experiment in mice. As to conditions: female, BALB/c, mouse, plasma, po, 10 mg/kg.
Another series addresses T1, hERG (Homo sapiens, UniProt Q12809).
T1 construct: purchased ThermoFisher Scientific PV5365
As to the kind of experiment: hERG test (Predictor hERG Fluorescence Polarization Assay Kit). The following applies: for inhibition at 3.5 h, 10 µM: human, probe Predictor hERG Tracer Red, 10 µM test substance, three duplicate wells; for IC50: only 10 µM tested. It counts as binding. As for the experimental part: Predictor™ hERG Fluorescence Polarization Assay Kit (ThermoFisher Scientific, PV5365).
The procedures in the kit instructions were followed: 4× Predictor™ hERG Tracer Red, 4× E-4031, and 4× test substance solutions (final assay concentration: 10 µM) were prepared in advance. 5 µL Predictor™ hERG FP Assay Buffer and 5 µL Predictor™ hERG Membrane were added sequentially to the Assay Blank group in a 384-well plate. 2.5 µL Predictor™ hERG FP Assay Buffer, 2.5 µL of 4× E-4031, and 2.5 µL of 4× test substance were added to the negative control group, the positive control group, and the test substance group, respectively, and then 5 µL Predictor™ hERG Membrane and 2.5 µL of 4× Predictor™ hERG Tracer Red were sequentially added. The total volume of the experimental system was 10 µL, and three duplicate wells were set for each group. After loading, the plate was gently tapped to mix well and incubated at room temperature (25 °C) in the dark for 3.5 h. After the incubation was completed, the fluorescence polarization value mP was measured on a microplate reader, and G Factor was 2.14.
The inhibition rate of the test substance was calculated using the following formula: [formula]

The next series has as its system wild-type HCT-116 cells. The series can be described thus: Cell proliferation (MTS), wild-type HCT-116. It counts as cell-based. As to conditions: Homo sapiens, 240 h; wild-type HCT-116, 10 days with compound, MTS reading; read-out: IC50 HCT116 WT. An outline of the steps:
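Wild-type HCT-116 cells were seeded at 100 cells/well in McCoy's 5A/10% FBS. From day 1 they were treated with compound in 3-fold dilutions (initial 20 µM, 8 points) for 10 days at 37° C. Proliferation was read by MTS on day 11, and IC50 was obtained from a four-parameter logistic fit.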

T1 sequence (Q12809 whole entry): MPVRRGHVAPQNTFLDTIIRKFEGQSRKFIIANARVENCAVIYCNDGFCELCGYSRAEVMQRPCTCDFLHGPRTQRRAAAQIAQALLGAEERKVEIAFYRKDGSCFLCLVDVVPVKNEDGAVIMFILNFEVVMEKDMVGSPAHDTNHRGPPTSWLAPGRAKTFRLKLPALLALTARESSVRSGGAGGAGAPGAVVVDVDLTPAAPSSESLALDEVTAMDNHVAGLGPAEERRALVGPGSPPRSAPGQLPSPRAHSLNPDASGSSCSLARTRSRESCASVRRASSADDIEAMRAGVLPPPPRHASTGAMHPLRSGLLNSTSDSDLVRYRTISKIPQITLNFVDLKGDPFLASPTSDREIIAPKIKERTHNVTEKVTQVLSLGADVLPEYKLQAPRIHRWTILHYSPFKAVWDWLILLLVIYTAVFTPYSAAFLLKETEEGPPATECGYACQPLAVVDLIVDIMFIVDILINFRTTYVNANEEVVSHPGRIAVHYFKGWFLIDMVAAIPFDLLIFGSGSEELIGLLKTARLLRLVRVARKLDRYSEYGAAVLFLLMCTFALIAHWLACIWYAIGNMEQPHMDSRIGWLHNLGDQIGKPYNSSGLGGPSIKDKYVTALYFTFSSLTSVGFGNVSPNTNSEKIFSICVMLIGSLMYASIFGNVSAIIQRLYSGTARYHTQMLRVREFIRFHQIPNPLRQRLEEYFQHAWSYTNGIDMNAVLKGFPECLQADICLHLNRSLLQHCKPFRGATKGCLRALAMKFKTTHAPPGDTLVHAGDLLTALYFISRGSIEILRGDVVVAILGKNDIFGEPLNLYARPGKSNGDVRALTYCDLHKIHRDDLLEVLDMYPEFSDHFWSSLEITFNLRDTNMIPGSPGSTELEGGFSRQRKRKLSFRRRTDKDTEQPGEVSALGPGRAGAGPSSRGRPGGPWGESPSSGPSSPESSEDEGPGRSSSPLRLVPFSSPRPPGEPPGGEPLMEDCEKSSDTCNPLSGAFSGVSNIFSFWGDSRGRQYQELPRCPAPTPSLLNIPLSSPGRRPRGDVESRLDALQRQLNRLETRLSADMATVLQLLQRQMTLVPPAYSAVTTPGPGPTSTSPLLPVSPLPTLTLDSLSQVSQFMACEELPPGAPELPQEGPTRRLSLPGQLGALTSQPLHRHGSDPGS
Experimental for PK experiment in mice: Experimental materials: the experimental animals were healthy adult female BALB/c mice (provided by Sichuan Vital River Laboratory Animal Technology Co., Ltd.).
Administration mode and sample collection in mice: BALB/c female mice received oral intragastrical administration (10 mg/kg, vehicle: 0.5% methylcellulose/0.2% Tween 80), and 60 µL of whole blood from the venous plexus of the fundus of the mice at different time points was collected at 0.25 h, 0.5 h, 1 h, 2 h, 4 h, 6 h, 8 h, and 24 h after administration and centrifuged at 4000 rpm for 6 min to collect plasma.
10 µL of mouse plasma sample was added to 190 µL of acetonitrile solution containing an internal standard to precipitate protein. The mixture was vortexed for 10 min and centrifuged at 4000 rpm for 10 min. The supernatant was collected and added to a 96-well plate. The samples were analyzed by LC-MS/MS. The drug concentrations in the plasma of mice at different time points after intragastric administration of the example compounds were measured by an LC-MS/MS method, and the related pharmacokinetic parameters were calculated, such that the pharmacokinetic behavior of the compounds in the mice was studied, and the pharmacokinetic characteristics were evaluated.

Usually AUC(0-t) stands for exposure summed from dosing to a finite time, without extrapolation to infinity. A high value points to more exposure. What is called Cmax is the highest concentration seen after dosing. What is called inhibition is the percentage by which the read-out fell short of the control. As to `CN(C(=O)c1cc2c(cc1F)nc(N)c1cnn(C)c12)[C@@H]1COc2cc(C#Cc3cnn(C4CC4)c3)ccc21` [Compound 12A, (S)-4-amino-N-(6-((1-cyclopropyl-1H-pyrazol-4-yl)ethynyl)-2,3-dihydrobenzofuran-3-yl)-7-fluoro-N,1-dimethyl-1H-pyrazolo[4,3-c]quinoline-8-carboxamide], in the series on MTAP^-/- HCT-116 cells, the Selectivity was 115 and the IC50 came out at 3.7 nM. In “PK experiment in mice”, this molecule showed an AUC(0-t) of 26900 ± 7450 ng·h/mL and a Cmax of 2670 ± 421 ng/mL. At hERG, the inhibition at 3.5 h, 10 µM was 22.4% and the IC50 was above 10000 nM. In addition, the IC50 with wild-type HCT-116 cells stood at 426 nM.

Regarding `CN(C(=O)c1cc2c3c(c(N)nc2cc1F)COC3)C1COc2cc(C#Cc3cnn(C)c3)ccc21` (stereo not drawn) [Compound 39, 4-amino-7-fluoro-N-methyl-N-(6-((1-methyl-1H-pyrazol-4-yl)ethynyl)-2,3-dihydrobenzofuran-3-yl)-1,3-dihydrofuro[3,4-c]quinoline-8-carboxamide], in the series with MTAP^-/- HCT-116 cells, the Selectivity is recorded as 148 and the IC50 was 20 nM. In the series “PK experiment in mice”, the AUC(0-t) is 20900 ± 8400 ng·h/mL and the Cmax worked out at 2670 ± 180 ng/mL. Also, at hERG, the inhibition at 3.5 h, 10 µM is 23.8% and the IC50 was above 10000 nM. Also, the IC50 with wild-type HCT-116 cells stood at 2960 nM.

As to `CN(C(=O)c1cc2c3c(c(N)nc2cc1Cl)COC3)C1COc2cc(C#Cc3cnn(C)c3)ccc21` (stereo not drawn) [Compound 40, 4-amino-7-chloro-N-methyl-N-(6-((1-methyl-1H-pyrazol-4-yl)ethynyl)-2,3-dihydrobenzofuran-3-yl)-1,3-dihydrofuro[3,4-c]quinoline-8-carboxamide], in the series with MTAP^-/- HCT-116 cells, the Selectivity is reported as 252 and the IC50 was 5.8 nM. Also, at hERG, the inhibition at 3.5 h, 10 µM was 22% and the IC50 is above 10000 nM. Besides, in the series on wild-type HCT-116 cells, the IC50 turned out to be 1460 nM.

With `Cc1ncccc1C#Cc1ccc2c(c1)OCC2N(C)C(=O)c1cc2c(cc1F)nc(N)c1cnn(C)c12` (stereo not drawn) [Compound 45, 4-amino-7-fluoro-N,1-dimethyl-N-(6-((2-methylpyridin-3-yl)ethynyl)-2,3-dihydrobenzofuran-3-yl)-1H-pyrazolo[4,3-c]quinoline-8-carboxamide], in the series with MTAP^-/- HCT-116 cells, the Selectivity is listed as 111 and the IC50 amounted to 5.9 nM. Further, at hERG, the inhibition at 3.5 h, 10 µM is 21% and the IC50 is above 10000 nM. Also, the IC50 in the series with wild-type HCT-116 cells worked out at 654 nM.

For the molecule `CN1CCn2c(C#Cc3ccc4c(c3)OC[C@H]4N(C)C(=O)c3cc4c(cc3F)nc(N)c3cnn(C)c34)cnc2C1` [Compound 46A, (S)-4-amino-7-fluoro-N,1-dimethyl-N-(6-((7-methyl-5,6,7,8-tetrahydroimidazo[1,2-a]pyrazin-3-yl)ethynyl)-2,3-dihydrobenzofuran-3-yl)-1H-pyrazolo[4,3-c]quinoline-8-carboxamide], the Selectivity with MTAP^-/- HCT-116 cells stood at 144. The IC50 with MTAP^-/- HCT-116 cells is 1.1 nM; on hERG it was above 10000 nM; in the series with wild-type HCT-116 cells, 158 nM. For the same molecule, on hERG, the inhibition at 3.5 h, 10 µM was 43.9 ± 18.8%.

Turning to `Cc1c(C#Cc2ccc3c(c2)OC[C@H]3N(C)C(=O)c2cc3c4c(c(N)nc3cc2Cl)COC4)cnn1C` [Compound 52A, (S)-4-amino-7-chloro-N-(6-((1,5-dimethyl-1H-pyrazol-4-yl)ethynyl)-2,3-dihydrobenzofuran-3-yl)-N-methyl-1,3-dihydrofuro[3,4-c]quinoline-8-carboxamide], in the series with MTAP^-/- HCT-116 cells, the Selectivity was found to be 152 and the IC50 was 3.2 nM. In “PK experiment in mice”, the area under the curve AUC(0-t) came to 14200 ± 2430 ng·h/mL and the concentration peaked (Cmax) at 1500 ± 313 ng/mL. For the same molecule, on hERG, the inhibition at 3.5 h, 10 µM is 10.4 ± 49.1% and the IC50 is above 10000 nM. In the series with wild-type HCT-116 cells, the IC50 was found to be 487 nM.
